The results in this text go back to patent US7521474B2, “Biologically active lasonolide compounds” (priority 2003, dated 2009).

pIC50: −log10 of the molar value. ≈ marks a conversion by molar mass, not a printed value. Like-named read-outs stand apart in the source and are kept apart here. A value given as a limit tells only on which side of the number the result lay.

Assay type in all cases: cell-based
Assay [1] has as its system Candida albicans (ATCC strain 44506). Briefly: Broth dilution assay (MIC). The settings on record: 37° C.; for MIC: Candida albicans, ATCC44506, 24 h; for Minimum inhibitory concentration (MIC): 24 hours. The method, then:
(§1) The antifungal activity of lasonolides C and F against Candida albicans (American Type Culture Collection strain 44506) was determined through the use of both agar diffusion and broth dilution assays.
Broth dilution assays were performed as standard 96-well microtiter assays in a total volume of 50 μl with a seeding density of 10^3 cells/ml. The concentration range for test compound ranged from 50 to 3 μg/ml as two-fold dilutions. […] The Minimum inhibitory concentration (MIC) of Lasonolide F (IV) against Candida albicans in SDB broth is 50 μg/ml while in RPMI broth it is greater than 50 μg/ml.
Background: Dilution methods test growth across graded concentrations, often in twofold steps.

The subject of assay [2] is A549 human lung adenocarcinoma. Description: Antiproliferative MTT assay, A549. The settings on record: for pIC50: value in parentheses. The method, then:
(§2) The lasonolide compounds were analyzed as to their effects on proliferation of A549 human lung adenocarcinoma, PANC-1 human pancreatic cancer and NCI-ADR-RES tumor cell lines. A549 human lung adenocarcinoma, PANC-1 pancreatic cancer cells and the NCI/ADR-RES (formerly MCF-7/ADR) human breast cell lines were obtained from the American Type Culture Collection (Rockville, Md.).
(§3) All cell lines are maintained in Roswell Park Memorial Institute (RPMI) medium 1640 supplemented with 100 U/mL penicillin 100 μg/ml streptomycin, 60 μg/ml L-glutamine, 18 mM HEPES, 0.05 mg/mL gentamycin and 10% fetal bovine serum (for the PANC-1 cell line the media is also supplemented with 100 μg/ml sodium pyruvate and 2.5 mg/ml glucose). Cell lines are cultured in plastic tissue culture flasks and kept in an incubator at 37° C. in humidified air containing 5% CO2.
(§4) To assess the antiproliferative effects of agents against the various cell lines, 200 μl cultures (96-well tissue culture plates, Nunc, Denmark) are first established at 3×10^4 cells/ml for adherent lines in tissue culture medium and incubated for 24 hr at 37° C. in 10% CO2 in air in order to allow cells to attach. A volume of 100 μl of medium is removed from each test well and 100 μl of medium containing serial, two-fold dilutions of the test agent is added to each well containing tumor cells. Medium without drug is also added to wells containing tumor cells which serve as no drug controls.
(§5) Positive drug controls are included to monitor drug sensitivity of each of the cell lines. These include varying dilutions of 5-fluorouracil, and doxorubicin. After 72-h exposure, tumor cells are enumerated using 3-[4,5-Dimethylthiazol-2-yl]-2,5-diphenyltetrazolium bromide (MTT) (M. C. Alley, et al., Cancer Res. 48:589, 1988) as follows:
(§6) A volume of 75 μl of warm growth media containing 5 mg/ml MTT is added to each well, cultures returned to the incubator, and left undisturbed for 3 hours. To spectrophotometrically quantitate formation of reduced formazan, plates are centrifuged (900×g, 5 minutes), culture fluids removed by aspiration, and 200 μl of acidified isopropanol (2 ml concentrated HCl/liter isopropanol) added per well. The absorbance of the resulting solutions is measured at 570 nm with a plate reader (Spectra II (Tecan Laboratories). The absorbance of tests wells is divided by the absorbance of drug-free wells, and the concentration of agent that results in 50% of the absorbance of untreated cultures (IC50) is determined by linear regression of logit-transformed data (D. J. Finney, Statistical Method in Biological Assay, third ed., pp.316-348, Charles Griffin Co., London, 1978). A linear relationship between tumor cell number and formazan production has been routinely observed over the range of cell densities observed in these experiments. The two standard drug controls (indicated above) are included in each assay to monitor the drug sensitivity of each of the cell lines and IC50 values are determined for each drug-cell combination.
A general note: Tetrazolium dyes change colour on reduction, which living cells bring about.

Assay [3] deals with PANC-1 human pancreatic cancer. Description: Antiproliferative MTT assay, PANC-1. The settings on record: for pIC50: value in parentheses. The protocol:
as §2, §3, §4, §5, §6

In assay [4] the test system is NCI/ADR-RES (formerly MCF-7/ADR) human breast cell line. Description: Antiproliferative MTT assay, NCI/ADR-RES. The settings on record: 72-h exposure; for pIC50: value in parentheses. The protocol: as §2, §3, §4, §5, §6
The subject of assay [5] is Candida albicans (ATCC strain 44506). Description: Agar (disk) diffusion assay. The settings on record: 37° C., 24 hours. The protocol: as §1
Agar diffusion assays were performed using Sabouraud Dextrose agar plates seeded with the test microbe at 10^5/ml. Disks (6.35 mm, Schliecher and Schuell) were impregnated with 25 μg of test compound, allowed to dry and then placed on the agar surface. After incubation at 37° C. for 24 hours the zones of growth inhibition were determined. A control disk containing 100IU nystatin was run on the same plate as the test compound: the zone of inhibition was 28 mm.

Setting [6] is: Homo sapiens, A549, 72-h exposure.
[7] abbreviates: Homo sapiens, PANC-1, 72-h exposure.

With `Nc1nc(=O)[nH]cc1F` [5-fluorocytosine, reference compound], the MIC in assay [1] (antifungal control, broth not stated, read-out: MIC) came out at 0.62 µg/mL (≈ 4.8 µM).

Take `CC1=C/[C@H]2O[C@@H](C/C=C/C=C/C(=O)O[C@@H]3C[C@@H](/C=C/C\C=C\1)O[C@@H](C/C=C\CCO)[C@]3(C)CO)C[C@H](O)[C@H]2C` [Lasonolide D (II), Lasonolide D]: the concentration for half-maximal inhibition (IC50) in assay [2] (setting [6]) is 2.4 µg/mL; in assay [3] (setting [7]), 2.6 µg/mL; in assay [4] (Homo sapiens, NCI/ADR-RES), over 5 µg/mL. Moreover, the pIC50 was 5.35 in assay [2] (setting [6]); 5.31 in assay [3] (setting [7]); under 5.05 in assay [4] (Homo sapiens, NCI/ADR-RES).

Take `CCOC(=O)C(O)C/C=C\C[C@@H]1O[C@@H]2/C=C/C/C=C/C(C)=C\[C@H]3O[C@@H](C/C=C/C=C/C(=O)O[C@H](C2)[C@@]1(C)CO)C[C@H](O)[C@H]3C` (some centres unmarked) [Lasonolide E (III), Lasonolide E]: the IC50 is 0.19 µg/mL in assay [2] (setting [6]); 0.35 µg/mL in assay [3] (setting [7]); over 5 µg/mL in assay [4] (Homo sapiens, NCI/ADR-RES). In addition, the pIC50 in assay [2] (setting [6]) was 6.51; in assay [3] (setting [7]) it was 6.24; in assay [4] (Homo sapiens, NCI/ADR-RES), under 5.10.

Turning to `CC1=C/[C@H]2O[C@@H](C/C=C/C=C/C(=O)O[C@@H]3C[C@@H](/C=C/C\C=C\1)O[C@@H](C/C=C\CC(O)C(=O)O)[C@]3(C)CO)C[C@H](O)[C@H]2C` (some centres unmarked) [Lasonolide F (IV), Lasonolide F], the MIC in assay [1] (RPMI broth, read-out: Minimum inhibitory concentration (MIC)) is over 50 µg/mL; in assay [1] (SDB broth, read-out: Minimum inhibitory concentration (MIC)) it was 50 µg/mL (≈ 85.2 µM). In assay [5] (Candida albicans, ATCC44506, tested at 25 μg/ml (disk 6.35 mm impregnated with 25 μg), read-out: growth inhibitory zone), the zone of inhibition at 25 µg/mL came out at 10 mm.

`C[C@@H]1[C@H](O)[C@@H](C)/C=C/C=C/CC/C=C/C=C/C=C/C=C/C(O[C@H]2O[C@H](C)[C@@H](O)[C@H](N)[C@@H]2O)CC2O[C@](O)(CC(O)C(O)CCC(O)CC(O)CC(O)CC(=O)O[C@H]1C)CC(O)C2C(=O)O` (some centres unmarked) [nystatin, reference compound]: the zone of inhibition in assay [5] (control disk containing 100IU, same plate) amounted to 28 mm.

On to Lasonolide C [Lasonolide C (I)], for which the “Minimum inhibitory concentration (MIC)” value in assay [1] (RPMI broth) was found to be 12.5 µg/mL. For the same compound, in assay [1] (SDB broth), the “Minimum inhibitory concentration (MIC)” value was 5 µg/mL. In assay [2] (72-h exposure), the “A549 IC50” value was found to be 0.095 µg/mL and the pIC50 is 6.89. In assay [5] (tested at 25 μg/ml (disk 6.35 mm impregnated with 25 μg)), this compound yielded a growth inhibitory zone of 15 mm. Moreover, in assay [3] (72-h exposure), the “PANC-1 IC50” value worked out at 0.27 µg/mL and the pIC50 is 6.42. In addition, in assay [4], the “NCI ADR-RES IC50” value stood at 0.8 µg/mL and the negative logarithm of the IC50 (pIC50) is 5.95.

In general, IC50 refers to the midpoint of a concentration-inhibition curve. A word on the pIC50: it is −log10 of the IC50, conventionally taken in molar units.
